In ChEMBL document CHEMBL1138103, “Synthesis and antibacterial activity of new fluoroquinolones containing a substituted N-(phenethyl)piperazine moiety” (2006):
Converted amounts (≈) assume the structure as drawn.

How the values were obtained:
Format in all cases: functional
Staphylococcus aureus [1] = experiment: microbe, parasite or virus in culture; details: ATCC 6538P
Description: Antibacterial activity against Staphylococcus aureus ATCC 6538p by agar-dilution method

Bacillus subtilis = experiment: microbe, parasite or virus in culture; details: ATCC 6633
Description: Antibacterial activity against Bacillus subtilis ATCC 6633 by agar-dilution method

[2] = tested on: Staphylococcus epidermidis; experiment: microbe, parasite or virus in culture; details: ATCC 12228
Description: Antibacterial activity against Staphylococcus epidermidis ATCC 12228 by agar-dilution method

Escherichia coli = experiment: microbe, parasite or virus in culture; details: ATCC 8739
Description: Antibacterial activity against Escherichia coli ATCC 8739 by agar-dilution method

Klebsiella pneumoniae = experiment: microbe, parasite or virus in culture; details: ATCC 10031
Description: Antibacterial activity against Klebsiella pneumoniae ATCC 10031 by agar-dilution method

Pseudomonas aeruginosa = experiment: microbe, parasite or virus in culture; details: ATCC 9027
Description: Antibacterial activity against Pseudomonas aeruginosa ATCC 9027 by agar-dilution method

Staphylococcus aureus [3] = experiment: Antibacterial activity against methicillin-resistant Staphylococcus aureus 1 by agar-dilution method
Staphylococcus aureus [4] = experiment: Antibacterial activity against methicillin-resistant Staphylococcus aureus 2 by agar-dilution method

| MIC (Staphylococcus aureus [1]) [µg/mL] | MIC (Bacillus subtilis) [µg/mL] | MIC [2] [µg/mL] | MIC (Escherichia coli) [µg/mL] | MIC (Klebsiella pneumoniae) [µg/mL] | MIC (Pseudomonas aeruginosa) [µg/mL] | SMILES | MIC (Staphylococcus aureus [3]) [µg/mL] | MIC (Staphylococcus aureus [4]) [µg/mL] |
| --- | --- | --- | --- | --- | --- | --- | --- | --- |
| 12.5 (≈ 25.7 µM) | 6.25 (≈ 12.9 µM) | 6.25 (≈ 12.9 µM) | 6.25 (≈ 12.9 µM) | 1.56 (≈ 3.21 µM) | 100 (≈ 206 µM) | CCn1cc(C(=O)O)c(=O)c2cc(F)c(N3CCN(C/C(=N\OC)c4ccc(F)cc4)CC3)nc21 |  |  |
| 25 (≈ 53.5 µM) | 12.5 (≈ 26.7 µM) | 25 (≈ 53.5 µM) | 12.5 (≈ 26.7 µM) | 12.5 (≈ 26.7 µM) | > 100 | CCn1cc(C(=O)O)c(=O)c2cc(F)c(N3CCN(C/C(=N\OC)c4ccccc4)CC3)nc21 |  |  |
| 25 (≈ 46.6 µM) | 12.5 (≈ 23.3 µM) | 25 (≈ 46.6 µM) | 12.5 (≈ 23.3 µM) | 6.25 (≈ 11.7 µM) | 50 (≈ 93.2 µM) | CCn1cc(C(=O)O)c(=O)c2cc(F)c(N3CCN(C/C(=N\OC)c4ccc(Cl)cc4Cl)CC3)nc21 |  |  |
| 25 (≈ 53.6 µM) | 6.25 (≈ 13.4 µM) | 25 (≈ 53.6 µM) | 12.5 (≈ 26.8 µM) | 12.5 (≈ 26.8 µM) | > 100 | CCn1cc(C(=O)O)c(=O)c2cc(F)c(N3CCN(C/C(=N\OC)c4ccccc4)CC3)cc21 |  |  |
| 25 (≈ 49.7 µM) | 1.56 (≈ 3.1 µM) | 25 (≈ 49.7 µM) | 50 (≈ 99.3 µM) | 25 (≈ 49.7 µM) | > 100 | CCn1cc(C(=O)O)c(=O)c2cc(F)c(N3CCN(C/C(=N\OC)c4ccc(F)cc4F)CC3)nc21 |  |  |
| 12.5 (≈ 24.9 µM) | 1.56 (≈ 3.1 µM) | 12.5 (≈ 24.9 µM) | 25 (≈ 49.8 µM) | 12.5 (≈ 24.9 µM) | > 100 | CCn1cc(C(=O)O)c(=O)c2cc(F)c(N3CCN(C/C(=N\OC)c4ccc(F)cc4F)CC3)cc21 |  |  |
| 6.25 (≈ 12.9 µM) | 3.13 (≈ 6.46 µM) | 1.56 (≈ 3.22 µM) | 3.13 (≈ 6.46 µM) | 0.78 (≈ 1.61 µM) | 100 (≈ 206 µM) | CCn1cc(C(=O)O)c(=O)c2cc(F)c(N3CCN(C/C(=N\OC)c4ccc(F)cc4)CC3)cc21 |  |  |
| 12.5 (≈ 23.3 µM) | 12.5 (≈ 23.3 µM) | 12.5 (≈ 23.3 µM) | 12.5 (≈ 23.3 µM) | 6.25 (≈ 11.7 µM) | > 100 | CCn1cc(C(=O)O)c(=O)c2cc(F)c(N3CCN(C/C(=N\OC)c4ccc(Cl)cc4Cl)CC3)cc21 |  |  |
| 6.25 (≈ 12.1 µM) | 0.78 (≈ 1.52 µM) | 6.25 (≈ 12.1 µM) | 1.56 (≈ 3.03 µM) | 0.78 (≈ 1.52 µM) | 12.5 (≈ 24.3 µM) | CO/N=C(\CN1CCN(c2cc3c(cc2F)c(=O)c(C(=O)O)cn3C2CC2)CC1)c1ccc(F)cc1F |  |  |
| 6.25 (≈ 12.6 µM) | 6.25 (≈ 12.6 µM) | 6.25 (≈ 12.6 µM) | 3.13 (≈ 6.3 µM) | 3.13 (≈ 6.3 µM) | 50 (≈ 101 µM) | CO/N=C(\CN1CCN(c2cc3c(cc2F)c(=O)c(C(=O)O)cn3C2CC2)CC1)c1ccc(F)cc1 |  |  |
| 12.5 (≈ 26.1 µM) | 6.25 (≈ 13.1 µM) | 12.5 (≈ 26.1 µM) | 6.25 (≈ 13.1 µM) | 3.13 (≈ 6.54 µM) | 100 (≈ 209 µM) | CO/N=C(\CN1CCN(c2cc3c(cc2F)c(=O)c(C(=O)O)cn3C2CC2)CC1)c1ccccc1 |  |  |

Further lines, the molecule ahead of its results:

| SMILES | MIC (Staphylococcus aureus [1]) [µg/mL] | MIC (Bacillus subtilis) [µg/mL] | MIC [2] [µg/mL] | MIC (Escherichia coli) [µg/mL] | MIC (Klebsiella pneumoniae) [µg/mL] | MIC (Pseudomonas aeruginosa) [µg/mL] | MIC (Staphylococcus aureus [3]) [µg/mL] | MIC (Staphylococcus aureus [4]) [µg/mL] |
| --- | --- | --- | --- | --- | --- | --- | --- | --- |
| O=C(CN1CCN(c2cc3c(cc2F)c(=O)c(C(=O)O)cn3C2CC2)CC1)c1ccc(Cl)cc1 | 0.39 (≈ 0.806 µM) | 0.049 (≈ 0.101 µM) | 0.195 (≈ 0.403 µM) | 0.025 (≈ 0.0517 µM) | 0.013 (≈ 0.0269 µM) | 1.56 (≈ 3.22 µM) | 0.39 (≈ 0.806 µM) | 0.39 (≈ 0.806 µM) |
| O=C(CN1CCN(c2cc3c(cc2F)c(=O)c(C(=O)O)cn3C2CC2)CC1)c1ccccc1Cl | 0.39 (≈ 0.806 µM) | 0.049 (≈ 0.101 µM) | 0.195 (≈ 0.403 µM) | 0.098 (≈ 0.203 µM) | 0.025 (≈ 0.0517 µM) | 6.25 (≈ 12.9 µM) | 0.39 (≈ 0.806 µM) | 0.39 (≈ 0.806 µM) |
| O=C(O)c1cn(C2CC2)c2cc(N3CCN(C/C(=N\O)c4ccc(Cl)cc4)CC3)c(F)cc2c1=O | 0.39 (≈ 0.782 µM) | 0.78 (≈ 1.56 µM) | 0.195 (≈ 0.391 µM) | 0.78 (≈ 1.56 µM) | 0.049 (≈ 0.0982 µM) | 100 (≈ 200 µM) | 0.195 (≈ 0.391 µM) | 0.098 (≈ 0.196 µM) |
| CO/N=C(\CN1CCN(c2cc3c(cc2F)c(=O)c(C(=O)O)cn3C2CC2)CC1)c1ccc(Cl)cc1Cl | 0.39 (≈ 0.712 µM) | 0.025 (≈ 0.0457 µM) | 0.39 (≈ 0.712 µM) | 0.025 (≈ 0.0457 µM) | 0.012 (≈ 0.0219 µM) | 1.56 (≈ 2.85 µM) | 0.39 (≈ 0.712 µM) | 0.39 (≈ 0.712 µM) |
| CO/N=C(\CN1CCN(c2cc3c(cc2F)c(=O)c(C(=O)O)cn3C2CC2)CC1)c1ccccc1Cl | 0.39 (≈ 0.76 µM) | 0.049 (≈ 0.0955 µM) | 0.195 (≈ 0.38 µM) | 0.025 (≈ 0.0487 µM) | 0.013 (≈ 0.0253 µM) | 6.25 (≈ 12.2 µM) | 0.39 (≈ 0.76 µM) | 0.39 (≈ 0.76 µM) |
| CO/N=C(\CN1CCN(c2cc3c(cc2F)c(=O)c(C(=O)O)cn3C2CC2)CC1)c1ccc(Cl)cc1 | 0.78 (≈ 1.52 µM) | 1.56 (≈ 3.04 µM) | 0.39 (≈ 0.76 µM) | 1.56 (≈ 3.04 µM) | 0.78 (≈ 1.52 µM) | > 100 | 0.39 (≈ 0.76 µM) | 0.39 (≈ 0.76 µM) |
| O=C(O)c1cn(C2CC2)c2cc(N3CCN(C/C(=N\O)c4ccccc4Cl)CC3)c(F)cc2c1=O | 0.39 (≈ 0.782 µM) | 0.78 (≈ 1.56 µM) | 0.195 (≈ 0.391 µM) | 0.78 (≈ 1.56 µM) | 0.025 (≈ 0.0501 µM) | 25 (≈ 50.1 µM) | 0.39 (≈ 0.782 µM) | 0.39 (≈ 0.782 µM) |
| O=C(O)c1cn(C2CC2)c2cc(N3CCNCC3)c(F)cc2c1=O [CIPROFLOXACIN] | 0.39 (≈ 1.18 µM) | 0.025 (≈ 0.0754 µM) | 0.39 (≈ 1.18 µM) | 0.025 (≈ 0.0754 µM) | 0.025 (≈ 0.0754 µM) | 0.78 (≈ 2.35 µM) | 0.39 (≈ 1.18 µM) | 0.39 (≈ 1.18 µM) |
| CCn1cc(C(=O)O)c(=O)c2cc(F)c(N3CCNCC3)nc21 [ENOXACIN] | 1.56 (≈ 4.87 µM) | 0.098 (≈ 0.306 µM) | 0.78 (≈ 2.44 µM) | 0.098 (≈ 0.306 µM) | 0.098 (≈ 0.306 µM) | 6.25 (≈ 19.5 µM) |  |  |
| CCn1cc(C(=O)O)c(=O)c2cc(F)c(N3CCNCC3)cc21 [NORFLOXACIN] | 0.78 (≈ 2.44 µM) | 0.049 (≈ 0.153 µM) | 0.78 (≈ 2.44 µM) | 0.049 (≈ 0.153 µM) | 0.049 (≈ 0.153 µM) | 3.13 (≈ 9.8 µM) | 0.78 (≈ 2.44 µM) | 0.78 (≈ 2.44 µM) |
